Source: patent US20150315241A1, “Antibiotic Peptides” (priority 2007, published 2015)
In brackets after ≈: the same amount, converted by molar mass. Where two headings read alike, the source gives them in different places. Where a SMILES comes first, the peptide text is derived from it. [ ]: non-standard residue; d: D form. The star is where a group is joined. Orn(α-tetramethylguanidino) = CN(C)C(=N[C@@H](CCCN)C(=O)*)N(C)C; NMeR = CN[C@@H](CCCNC(=N)N)C(=O)O; Hyp = O=C(O)[C@@H]1C[C@@H](O)CN1; Cha = N[C@@H](CC1CCCCC1)C(=O)O; Cit = NC(=O)NCCC[C@H](N)C(=O)O; Tle = CC(C)(C)[C@H](N)C(=O)O; Orn = NCCC[C@H](N)C(=O)O; βAla = NCCC(=O)O

What was measured:
E. coli BL 21 AI = assay: Growth inhibition assay (MIC); assay type: cell-based, Escherichia coli; conditions: 1% TSB, 37° C., 20 hrs
Description: (§1) The minimal inhibition concentrations (MIC) of the apidaecin-derived peptides and peptide-derivatives were determined by a growth inhibition assay using a serial peptide dilution in sterilized round-bottom 96-well plates (polystyrene, U-bottom, Greiner Bio-One GmbH) with a final volume of 100 μL per well. The bacteria, e.g., E. coli BL21 A1, were grown in nutrient broth (NB, Carl Roth GmbH+Co. KG, Karlsruhe, Germany) at 37° C. over night. To each well of the 96-well plate, 50 μL of the overnight culture adjusted to 5×10^6 CFU/mL in 1% TSB were added. Lyophilized peptides and peptidomimetics were dissolved in 1% TSB (tryptic soy broth) or water to give a final concentration of 250 μg/mL. Fifty μL of the peptide or peptidomimetics solution were added to the first well of a row on the plate and mixed. Fifty μL of the first well containing the peptide solution were transferred to the second well, mixed and again 50 μL transferred to the next well and so on. Thereby, a two-fold dilution series was obtained starting at 250 μg/mL in the first well down to 120 ng/mL in the 12th well of a row giving a final peptide or peptidomimetics concentration from 125 μg/mL (well 1) to 60 ng/mL (well 12). Plates were incubated at 37° C. for 20 hrs. The absorbance was measured at 595 nm using a TECAN micro plate spectrophotometer (Tecan, Germany). All peptides and peptidomimetics were measured in triplicates. Sterilized water was used as a negative control.
(§2) The bacteria strains were tested: • Eschericha coli 1103, 10233, BL 21 AI, DC 2, • Klebsiella pneumoniae 681, • Micrococcus luteus ATCC 10240, • Mycobacterium vaccae • Bactillus subtillis 347.

M. luteus ATCC 10240 = assay type: cell-based, Micrococcus luteus
Description: as §1, §2

Compound	MIC E. coli BL 21 AI (E. coli BL 21 AI)	MIC M. luteus ATCC 10240 (M. luteus ATCC 10240; ATCC 10240, 20 h)	MIC M. luteus ATCC 10240 (M. luteus ATCC 10240; 1% TSB, 37° C., 20 hrs)
H-RPVYIPQPRPPHPRL-NH2 [compound 142]	125 µg/mL	125 µg/mL	–
CC[C@H](C)[C@H](NC(=O)[C@H](CCCNC(=N)N)NC(=O)[C@@H]1CCCN1C(=O)[C@H](Cc1c[nH]cn1)NC(=O)[C@@H]1CCCN1C(=O)[C@@H]1CCCN1C(=O)[C@H](CCCNC(=N)N)NC(=O)[C@@H]1CCCN1C(=O)[C@H](CCCNC(N)=O)NC(=O)[C@@H]1CCCN1C(=O)[C@@H](NC(=O)[C@H](Cc1ccc(O)cc1)NC(=O)[C@@H](NC(=O)[C@@H]1CCCN1C(=O)[C@H](CCCNC(=N)N)NC(=O)[C@H](CC(N)=O)NC(=O)[C@H](CC(N)=O)NC(=O)CN)C(C)C)[C@@H](C)CC)C(N)=O [compound 89] (H-GNNRPVYIP[Cit]PRPPHPRI-NH2)	1.95 µg/mL (≈ 0.913 µM)	–	15.63 µg/mL (≈ 7.32 µM)
H-GNNRPVYIPRPRPPHPRLV-OH [compound 69]	7.81 µg/mL	0.24 µg/mL	–
CC[C@H](C)[C@H](NC(=O)[C@H](Cc1ccc(O)cc1)NC(=O)[C@@H](NC(=O)[C@@H]1CCCN1C(=O)[C@H](CCCNC(=N)N)NC(=O)[C@H](CC(N)=O)NC(=O)[C@H](CC(N)=O)NC(=O)[C@H](CCCN)NC(C)=O)C(C)C)C(=O)N1CCC[C@H]1C(=O)N[C@@H](CCCNC(=N)N)C(=O)N1CCC[C@H]1C(=O)N[C@@H](CCCNC(=N)N)C(=O)N1CCC[C@H]1C(=O)N1CCC[C@H]1C(=O)N[C@@H](Cc1c[nH]cn1)C(=O)N1CCC[C@H]1C(=O)N(C)[C@@H](CCCNC(=N)N)C(=O)N[C@@H](CC(C)C)C(N)=O [compound 153] (Ac-[Orn]NNRPVYIPRPRPPHP[NMeR]L-NH2)	16 µg/mL (≈ 7.12 µM)	32 µg/mL (≈ 14.2 µM)	–
CC[C@H](C)[C@H](NC(=O)[C@H](Cc1ccc(O)cc1)NC(=O)[C@@H](NC(=O)[C@@H]1CCCN1C(=O)[C@H](CCCNC(=N)N)NC(=O)[C@H](CC(N)=O)NC(=O)[C@H](CC(N)=O)NC(=O)CN)C(C)C)C(=O)N1CCC[C@H]1C(=O)N[C@@H](CCC(N)=O)C(=O)N1CCC[C@H]1C(=O)N[C@@H](CCCNC(=N)N)C(=O)N1CCC[C@H]1C(=O)N1CCC[C@H]1C(=O)N[C@@H](Cc1c[nH]cn1)C(=O)N1CCC[C@H]1C(=O)N[C@@H](CCCNC(=N)N)C(=O)NCCC(N)=O [compound 79] (H-GNNRPVYIPQPRPPHPR[βAla]-NH2)	>125 µg/mL	62.5 µg/mL (≈ 30.3 µM)	–
CC[C@H](C)[C@H](NC(=O)[C@H](Cc1ccc(O)cc1)NC(=O)[C@@H](NC(=O)[C@@H]1CCCN1C(=O)[C@H](CCCNC(=N)N)NC(=O)[C@H](CC(N)=O)NC(=O)[C@H](CC(N)=O)NC(=O)CN)C(C)C)C(=O)N1CCC[C@H]1C(=O)N[C@@H](CCC(N)=O)C(=O)N1CCC[C@H]1C(=O)N[C@@H](CCCNC(=N)N)C(=O)N1CCC[C@H]1C(=O)N1CCC[C@H]1C(=O)N[C@@H](Cc1c[nH]cn1)C(=O)N1CCC[C@H]1C(=O)N[C@@H](CCCNC(=N)N)C(=O)N[C@@H](CC1CCCCC1)C(N)=O [compound 76] (H-GNNRPVYIPQPRPPHPR[Cha]-NH2)	62.5 µg/mL (≈ 29.1 µM)	15.63 µg/mL (≈ 7.28 µM)	–
CC[C@H](C)[C@H](NC(=O)[C@H](Cc1ccc(O)cc1)NC(=O)[C@@H](NC(=O)[C@@H]1CCCN1C(=O)[C@H](CCCNC(=N)N)NC(=O)[C@H](CC(N)=O)NC(=O)[C@H](CC(N)=O)NC(=O)[C@H](CCCN)NC(C)=O)C(C)C)C(=O)N1CCC[C@H]1C(=O)N[C@@H](CCCNC(=N)N)C(=O)N1CCC[C@H]1C(=O)N[C@@H](CCCNC(=N)N)C(=O)N1CCC[C@H]1C(=O)N1CCC[C@H]1C(=O)N[C@@H](Cc1c[nH]cn1)C(=O)N1CCC[C@H]1C(=O)N[C@H](CCCNC(=N)N)C(=O)N[C@@H](CC(C)C)C(N)=O [compound 152] (Ac-[Orn]NNRPVYIPRPRPPHP[dR]L-NH2)	32 µg/mL (≈ 14.3 µM)	32 µg/mL (≈ 14.3 µM)	–
H-GNNRPVYIAQPRPPHPAL-NH2 [compound 136]	>125 µg/mL	>125 µg/mL	–
CC[C@H](C)[C@H](NC(=O)[C@H](CCCNC(=N)N)NC(=O)[C@@H]1CCCN1C(=O)[C@H](Cc1c[nH]cn1)NC(=O)[C@@H]1CCCN1C(=O)[C@@H]1CCCN1C(=O)[C@H](CCCNC(=N)N)NC(=O)[C@@H]1CCCN1C(=O)[C@H](CCC(N)=O)NC(=O)[C@@H]1CCCN1C(=O)[C@@H](NC(=O)[C@H](Cc1ccc(O)cc1)NC(=O)[C@@H](NC(=O)[C@@H]1CCCN1C(=O)[C@H](CCCNC(=N)N)NC(=O)[C@H](CC(N)=O)NC(=O)[C@H](CC(N)=O)NC(=O)[C@@H](N)CCCN)C(C)C)[C@@H](C)CC)C(N)=O [compound 62] (H-[Orn]NNRPVYIPQPRPPHPRI-NH2)	1.95 µg/mL (≈ 0.901 µM)	7.81 µg/mL (≈ 3.61 µM)	–
CC[C@H](C)[C@H](NC(=O)[C@H](Cc1ccc(O)cc1)NC(=O)[C@@H](NC(=O)[C@@H]1CCCN1C(=O)[C@H](CCCNC(=N)N)NC(=O)[C@H](CC(N)=O)NC(=O)[C@H](CC(N)=O)NC(=O)CN)C(C)C)C(=O)N1CCC[C@H]1C(=O)N[C@@H](CCC(N)=O)C(=O)N1CCC[C@H]1C(=O)N[C@@H](CCCNC(=N)N)C(=O)N1CCC[C@H]1C(=O)N1CCC[C@H]1C(=O)N[C@@H](Cc1c[nH]cn1)C(=O)N1CCC[C@H]1C(=O)N[C@@H](CCCNC(=N)N)C(=O)N[C@H](C(N)=O)C(C)(C)C [compound 78] (H-GNNRPVYIPQPRPPHPR[Tle]-NH2)	–	31.25 µg/mL (≈ 14.8 µM)	–
CC[C@H](C)[C@H](NC(=O)[C@H](CCCNC(=N)N)NC(=O)[C@@H]1CCCN1C(=O)[C@H](Cc1c[nH]cn1)NC(=O)[C@@H]1CCCN1C(=O)[C@@H]1CCCN1C(=O)[C@H](CCCNC(=N)N)NC(=O)[C@@H]1C[C@@H](O)CN1C(=O)[C@H](CCCNC(=N)N)NC(=O)[C@@H]1CCCN1C(=O)[C@@H](NC(=O)[C@H](Cc1ccc(O)cc1)NC(=O)[C@@H](NC(=O)[C@@H]1CCCN1C(=O)[C@H](CCCNC(=N)N)NC(=O)[C@H](CC(N)=O)NC(=O)[C@H](CC(N)=O)NC(=O)CN)C(C)C)[C@@H](C)CC)C(N)=O [compound 90] (H-GNNRPVYIPR[Hyp]RPPHPRI-NH2)	–	7.81 µg/mL (≈ 3.63 µM)	–
CC[C@H](C)[C@H](NC(=O)[C@H](Cc1ccc(O)cc1)NC(=O)[C@@H](NC(=O)[C@@H]1CCCN1C(=O)[C@H](CCCNC(=N)N)NC(=O)[C@H](CC(N)=O)NC(=O)[C@H](CC(N)=O)NC(=O)[C@H](CCCN)N=C(N(C)C)N(C)C)C(C)C)C(=O)N1CCC[C@H]1C(=O)N[C@@H](CCCNC(=N)N)C(=O)N1CCC[C@H]1C(=O)N[C@@H](CCCNC(=N)N)C(=O)N1CCC[C@H]1C(=O)N1CCC[C@H]1C(=O)N[C@@H](Cc1c[nH]cn1)C(=O)N1CCC[C@H]1C(=O)N[C@@H](CCCNC(N)=O)C(=O)N[C@@H](CC(C)C)C(N)=O [compound 151] ({Orn(α-tetramethylguanidino)}-NNRPVYIPRPRPPHP[Cit]L-NH2; N-terminus and C-terminus assumed)	–	64 µg/mL (≈ 27.9 µM)	–
